Data on two molecules can be found in patent publication US20050267066A1, “Pharmaceutical composition comprising a CDK inhibitor and gemcitabine” (Cyclacel Limited, priority 2002, published 2005).

The subject of assay [1] is human prostrate tumor cells. As to conditions: concurrent exposure.
Method: The MTT assay is a spectrophotometric assay based on the ability of viable cells to convert MTT to formazan. Cell concentrations were estimated by measuring absorbance at test wavelength of 570 nm and a reference wavelength of 630 nm. An automated procedure was utilized to determine the IC50 value (concentration of drug which inhibits cell growth by 50% of the control) of all agents used in these studies.
After the initial IC50 analysis was complete, the combinations were then tested. For the combination studies, the concentration (expressed as a percent of the individual agent's IC50) schema used to characterise the type of interaction is shown below:
If the majority of (≧3 of 5) of the values are statistically above or below the line (endpoints) then antagonism or synergy is described, respectively. Otherwise, the pattern is more consistent with an additive interaction.
Assay [2] has as its system breast tumor cells (MDA-435). The assay is described as follows: MTT assay, 24 hour pre-exposure to roscovitine followed by 24 hour exposure to gemcitabine. Format: cell-based. The conditions noted are these: 24 h roscovitine then 24 h gemcitabine.
Setting [3] is: % IC50 100/0: roscovitine 6.75 ug/ml, gemcitabine 0.
The mark [4] stands for this setting: % IC50 100/0: roscovitine 9.00 ug/ml, gemcitabine 0.
The mark [5] stands for this setting: % IC50 0/100: roscovitine 0, gemcitabine 11.25 ng/ml.
The mark [6] stands for this setting: % IC50 0/100: roscovitine 0, gemcitabine 15.00 ng/ml.

Read-outs that look alike come from different tables or passages of the source.

As for `CC[C@H](CO)Nc1nc(NCc2ccccc2)c2ncn(C(C)C)c2n1` [Roscovitine, 6-benzylamino-2-[(R)-1-ethyl-2-hydroxyethylamino]-9-isopropylpurine], in assay [1] (setting [3]), the “% Abs” value is given as 83.3% and the “% Response” value stood at 16.7%. In assay [2] (setting [4]), the “% Abs” value is on record as 64.5% and the “% Response” value is listed as 35.5%.
Turning to `Nc1ccn([C@@H]2O[C@H](CO)[C@@H](O)C2(F)F)c(=O)n1` [Gemc., 2′-deoxy-2′,2′-difluorocytidine], in assay [1] (setting [5]), the “% Abs” value was determined as 93.1% and the “% Response” value was determined as 6.9%. For the same molecule, in assay [2] (setting [6]), the “% Abs” value stood at 85.0% and the “% Response” value is recorded as 15.0%.
